{"source": "paper PMC5107132", "about": "(European journal of pharmacology, 2016)", "tested_on": "Wistar rats", "test": "Rotarod test", "type": "in vivo, rat", "details": "15 mg/kg MP-III-022 in combination with 15 mg/kg flumazenil (FLU), i.p.", "note": "Marks after values point to notes of the source that are not given here."}
{"smiles": "C#Cc1ccc2c(c1)C(c1ccccc1F)=N[C@H](C)c1c(C(=O)NC)ncn1-2", "note": "[MP-III-022, (R)-8-Ethynyl-6-(2-fluorophenyl)-N,4-dimethyl-4H-benzo[f]imidazo[1,5-a][1,4]diazepine-3-carboxamide]", "values": [{"measurement": "Rotarod, time remaining on the rod revolving at 15 rpm", "value": "175.17 ± 4.83^a,d s"}]}
